Measurements: patent publication US20090087495A1, “Food for Improving Motor Function” (Nippon Meat Packers, Inc., priority 2005, published 2009)

The molecules below were run on male ddY mice (assay: Stamina improvement: swimming until exhaustion in a running water pool). Settings: material 10 mg/ml, oral 10 ml/kg once a day for seven days; 10 animals per group; relative value, Comparative Example 21 (control) = 100.
Type: in vivo
Text: The test solution was given to mice to check for the influence on the improvement of stamina. Five-week-old male ddY mice (purchased from Japan SLC Co. Ltd.) were raised, letting them be free to take solid feed (CE-2, Japan Clare Co. Ltd., Tokyo) and water (10 mice per group). […] After one week of preparatory raising and swim training, they were allowed to freely take ordinary solid feed and water. […] On the day just before start of giving the test solution and on the 7th day after start of giving the test solution, the experimental animals were let to swim until exhaustion in the pool (velocity at center: 23.6 cm/sec.) to measure the swimming duration and to obtain the elongation of the swimming duration in seven days.

Point of comparison: heme iron [Comparative Example 10], “Elongation of swimming duration (%), without chicken extract powder” value 110%. Against it:
- COC1=C(OC)C(=O)C(C/C=C(\C)CC/C=C(\C)CC/C=C(\C)CC/C=C(\C)CC/C=C(\C)CC/C=C(\C)CC/C=C(\C)CC/C=C(\C)CC/C=C(\C)CCC=C(C)C)=C(C)C1=O [Comparative Example 14, ubiquinone (CoQ10)] — the same, 110%
- N=C(N)NCCC[C@H](N)C(=O)O [Comparative Example 2, arginine] — the same, 110%
- Cn1c(=O)c2c(ncn2C)n(C)c1=O [Comparative Example 6, caffeine] — the same, 110%
- C/C=C1/[C@H](O[C@@H]2O[C@H](CO)[C@@H](O)[C@H](O)[C@H]2O)OC=C(C(=O)OC)[C@H]1CC(=O)OCCc1ccc(O)c(O)c1 [Comparative Example 13, oleuropein] — higher, 120%
- proanthocyanidin [Comparative Example 11] — the same, 110%
- antocyanine [Comparative Example 12] — higher, 120%
- O=C(O)CCCCC1CCSS1 (stereo not drawn) [Comparative Example 9, thioctic acid] — the same, 110%
- C[N+](C)(C)CC(O)CC(=O)[O-] (stereo not drawn) [Comparative Example 8, carnitine] — the same, 110%
- tocotrienol [Comparative Example 15] — higher, 120%
- CN(CC(=O)O)C(=N)N [Comparative Example 1, creatine] — the same, 110%
- O=C(O)CC(O)(CC(=O)O)C(=O)O [Comparative Example 7, citric acid] — the same, 110%
